We go through one compound from patent US5597715A, “7,42-Bis(O-demethyl)rapamycin” (SmithKline Beecham p.l.c., priority 1993, dated 1997).

This assay relates to Spleen cells. Kind of assay: Mitogenesis Assay for Immunosuppressive Activity (Concanavalin A, 3H-thymidine). It counts as cell-based, BDF1 female mice. Conditions: Mus musculus; Concanavalin A 5 μg/ml, 72 hours, 3H-thymidine last 18 hours. As for the experimental part:
Spleen cells for BDF1 female mice were established in RPMI with 10% fetal calf serum at 5×10^6 /mL. One hundred […] of this suspension (5×10^5 cells) were dispensed into 96-well round-bottomed microtiter plates (Linbro, Flow Laboratories). Concanavalin A (5 μg/ml) was added as the mitogenic stimulus, and the final volume in the microtiter wells was adjusted to 200 μL with RPMI. Cell cultures were incubated for 72 hours at 37° C. in a 5% CO2 atmosphere and pulsed with 0,5 μCi ^3 H-thymidine (specific activity […]) for the last 18 hours of the 72 hours culture. The cells were harvested on an automated multiple sample harvester and cell-associated radioactivity counted in a Beckman liquid scintillation counter. The results were expressed as the mean values derived from quadruplicate measurements. Cell viability was determined by trypan blue exclusion after 72 hours of incubation. Compounds to be tested were added to the microtiter plates at the appropriate dilutions prior to the addition of cells.

A word on the IC50: it is the concentration needed to halve the response being measured. In turn, `COC1C(=O)C(C)CC(C)C=CC=CC=C(C)C(O)CC2CCC(C)C(O)(O2)C(=O)C(=O)N2CCCCC2C(=O)OC(C(C)CC2CCC(O)C(O)C2)CC(=O)C(C)C=C(C)C1O` (stereo not shown) [7,42-Bis(O-demethyl)rapamycin] displayed a half-inhibitory concentration (IC50) of 10 to 130 nM.
